According to patent US4735953A, “Pharmaceutical preparation for learning stimulation and memory improvement” (priority 1986, dated 1988):
Counter-ions that a name gives are not always drawn.

Tests used:
[1] = test system: cerebral cortex of rabbits; assay: Asymmetry factor by induced potential in the hearing zone of the cerebral cortex; format: in vivo, rabbit
Protocol: (§1) In the third series of experiments the effect of the preparation according to the present invention on the functional brain asymmetry was studied. The experiments were carried out on rabbits with electrodes implanted in the brain. The electrodes under nembutal narcosis (40 mg/kg) were implanted strictly symmetrically into the bearing zone of the temporal cortex of the right and left hemispheres on its lateral surface, whereas the indifferent electrode was secured to the nasal bones of a rabbit's skull. The acoustic irritation was applied through earphones. As the acoustic irritation a sound click caused by a square-shaped pulse from an electronic stimulator with a frequency of 0.1-0.2 Hz was used; the click intensity was adjusted within the range of from 5 to 80 Db. The amplification of the taken-off biopotentials was effected on an electroencephalograph; the induced potentials were obtained by means of an analyzer. 100 experiments on 20 animals were thus conducted; the interval between experiments on one animal was 7 days. The amplitude and form of the induced potential were determined. The asymmetry factor (Kas) was calculated by the formula: [formula] Ar --amplitude of the induced potential of the […] hemisphere, μV;
(§2) A1 --amplitude of the induced potential of the left hemisphere.
(§3) The test preparations were administered hypodermally in the form of 0.5-1.5% aqueous solutions 20 minutes before the beginning of the measurements.

[2] = test system: rabbit's brain hemispheres; assay: Amplitude of induced potential in brain hemispheres (acoustic irritation); format: in vivo; conditions: rabbits
Protocol: as §1, §2, §3

[3] = test system: learning ability of rats in a shuttle chamber; assay: Active avoidance learning in a shuttle chamber, rats; format: in vivo, rat; conditions: rats, hypodermally 2 mg/kg
Description: (§4) In these experiments rats are taught to avoid an electric shock by escaping into a next chamber communicating with the first chamber by means of a special opening--a door. An electric current is applied to the chamber door consisting of metal plates. A conditional irritator is a light signal together with a sound click. The learning series consisted of 50 combinations. The number of combinations necessary for the animal's learning to escape into another chamber in response to the conditional signal was determined. Five correct responses out of 6 where regarded as the proof of stability of the acquired knowledge and were denoted as a "learning criterion". After 7 days the educational procedure was repeated, and again the number of combinations necessary to acquire the "learning criterion" was determined. In the case of difference between the first and second readings the percentage of retention of the acquired knowledge was calculated.
(§5) In this experiment the effect of the preparation according to the present invention and prior art preparations was separately evaluated for the purpose of comparison on well-learning and on specially selected poorly learning rats. […] To the poorly learning rats the animals were assigned which reached no "learning criterion" in the teaching series of 50 combinations, or, in other words, a stable knowledge of active avoidance was not worked out in them. […] The preparation according to the present invention and the prior art comparison preparations were administered before the first teaching series or thereafter.
(§6) Also studied were the effects produced upon a single and repeated administration of the preparation according to the present invention for 14 days.

[4] = test system: learning ability of mice in a shuttle chamber; assay: Learning ability of mice in a shuttle chamber; format: in vivo, mouse; conditions: mice
[5] = test system: learning ability of rats preliminarily sorted out for poor learning ability; assay: Active avoidance learning in a shuttle chamber, rats sorted out for poor learning ability; format: in vivo, rat; conditions: poorly learning rats, hypodermally 2 mg/kg
Description: as §4, §5, §6

[6] = hypodermally 1 mg/kg, 12 day (retention)
[7] = hypodermally 3 mg/kg, 12 day (retention)
[8] = hypodermally 30 mg/kg, 12 day (retention)
[9] = hypodermally 100 mg/kg, 1st day
[10] = hypodermally 100 mg/kg, 12 day (retention)
[11] = hypodermally 300 mg/kg, 1st day
[12] = hypodermally 300 mg/kg, 12 day (retention)
[13] = per os 300 mg/kg, 12 day (retention)

Nc1ccncc1 [4-aminopyridine]
asymmetry factor (in words) [1]: did not change or reduced the factor of asymmetry | Asymmetry factor, Preparation ([1]; hypodermally 2 mg/kg, control 0.26 ± 0.06): 0.12 ± 0.02 | amplitude of induced potentials (in words) [2]: increased amplitude of the induced potential | Change of amplitude of induced potential, % of the control, left hemisphere ([2]; hypodermally 2 mg/kg): 140% | Change of amplitude of induced potential, % of the control, right hemisphere ([2]; hypodermally 2 mg/kg): 175% | Mean value of amplitude of induced potential, % ([2]; hypodermally 2 mg/kg): 160% | Number of combinations to reach the "learning criterion" in II teaching series (after 7 days) [3]: 7.4 ± 1.2 | Number of combinations to reach the "learning criterion" in the I teaching series [3]: 17.8 ± 1.2 | Number of non-taught animals in the group [3]: 0/20 | Percentage knowledge retention [3]: 60% | retention of the knowledge of active avoidance (in words) [4]: does not affect the retention of the knowledge of active avoidance | teaching (in words) [4]: facilitates teaching | % of avoidance reactions, group I ([4]; hypodermally 1 mg/kg, 1st day): 17% | % of avoidance reactions, group II ([4]; hypodermally 1 mg/kg, 1st day): 21% | % of avoidance reactions, group III ([4]; hypodermally 1 mg/kg, 1st day): 38% | % of avoidance reactions, group IV ([4]; hypodermally 1 mg/kg, 1st day): 51% | % of avoidance reactions, group V ([4]; hypodermally 1 mg/kg, 1st day): 55% | % of avoidance reactions, group VI ([4]; hypodermally 1 mg/kg, 1st day): 60% | % of avoidance reactions, group I [4, 6]: 48% | % of avoidance reactions, group II [4, 6]: 70% | % of avoidance reactions, group III [4, 6]: 72% | % of avoidance reactions, group IV [4, 6]: 71% | % of avoidance reactions, group V [4, 6]: 70% | % of avoidance reactions, group VI [4, 6]: 75% | % of avoidance reactions, group I ([4]; hypodermally 3 mg/kg, 1st day): 20% | % of avoidance reactions, group II ([4]; hypodermally 3 mg/kg, 1st day): 30% | % of avoidance reactions, group III ([4]; hypodermally 3 mg/kg, 1st day): 54% | % of avoidance reactions, group IV ([4]; hypodermally 3 mg/kg, 1st day): 61% | % of avoidance reactions, group V ([4]; hypodermally 3 mg/kg, 1st day): 79% | % of avoidance reactions, group VI ([4]; hypodermally 3 mg/kg, 1st day): 82% | % of avoidance reactions, group I [4, 7]: 46% | % of avoidance reactions, group II [4, 7]: 73% | % of avoidance reactions, group III [4, 7]: 74% | % of avoidance reactions, group IV [4, 7]: 74% | % of avoidance reactions, group V [4, 7]: 80% | % of avoidance reactions, group VI [4, 7]: 80% | % of knowledge retention [5]: 40.9% | Number of combinations till appearance of "learning criterion", I teaching [5]: 32.5 ± 2.8 | Number of combinations till appearance of "learning criterion", II-checking of retention of knowledge [5]: 19.2 ± 1.7 | Number of untaught animals in the group [5]: 11/20

CC(C)(CO)[C@@H](O)C(=O)NCCCC(=O)O [Calcium homopantothenate, calcium salt of homopantothenic acid]
learning (in words) ([4]; 100 mg/kg): improving effect on learning only in a high dose | effect of hypodermal vs per os administration (in words) ([4]; hypodermal vs per os): substantially more pronounced effect than its per os administration | % of avoidance reactions, group I ([4]; hypodermally 30 mg/kg, 1st day): 21% | % of avoidance reactions, group II ([4]; hypodermally 30 mg/kg, 1st day): 23% | % of avoidance reactions, group III ([4]; hypodermally 30 mg/kg, 1st day): 40% | % of avoidance reactions, group IV ([4]; hypodermally 30 mg/kg, 1st day): 55% | % of avoidance reactions, group V ([4]; hypodermally 30 mg/kg, 1st day): 58% | % of avoidance reactions, group VI ([4]; hypodermally 30 mg/kg, 1st day): 60% | % of avoidance reactions, group I [4, 8]: 55% | % of avoidance reactions, group II [4, 8]: 80% | % of avoidance reactions, group III [4, 8]: 82% | % of avoidance reactions, group IV [4, 8]: 85% | % of avoidance reactions, group V [4, 8]: 84% | % of avoidance reactions, group VI [4, 8]: 88% | % of avoidance reactions, group I [4, 9]: 20% | % of avoidance reactions, group II [4, 9]: 31% | % of avoidance reactions, group III [4, 9]: 40% | % of avoidance reactions, group IV [4, 9]: 55% | % of avoidance reactions, group V [4, 9]: 58% | % of avoidance reactions, group VI [4, 9]: 60% | % of avoidance reactions, group I [4, 10]: 60% | % of avoidance reactions, group II [4, 10]: 90% | % of avoidance reactions, group III [4, 10]: 90% | % of avoidance reactions, group IV [4, 10]: 89% | % of avoidance reactions, group V [4, 10]: 90% | % of avoidance reactions, group VI [4, 10]: 88% | % of avoidance reactions, group I [4, 11]: 21% | % of avoidance reactions, group II [4, 11]: 32% | % of avoidance reactions, group III [4, 11]: 40% | % of avoidance reactions, group IV [4, 11]: 50% | % of avoidance reactions, group V [4, 11]: 51% | % of avoidance reactions, group VI [4, 11]: 55% | % of avoidance reactions, group I [4, 12]: 53% | % of avoidance reactions, group II [4, 12]: 75% | % of avoidance reactions, group III [4, 12]: 76% | % of avoidance reactions, group IV [4, 12]: 76% | % of avoidance reactions, group V [4, 12]: 74% | % of avoidance reactions, group VI [4, 12]: 74% | % of avoidance reactions, group I ([4]; per os 300 mg/kg, 1st day): 21% | % of avoidance reactions, group II ([4]; per os 300 mg/kg, 1st day): 22% | % of avoidance reactions, group III ([4]; per os 300 mg/kg, 1st day): 32% | % of avoidance reactions, group IV ([4]; per os 300 mg/kg, 1st day): 42% | % of avoidance reactions, group V ([4]; per os 300 mg/kg, 1st day): 43% | % of avoidance reactions, group VI ([4]; per os 300 mg/kg, 1st day): 51% | % of avoidance reactions, group I [4, 13]: 50% | % of avoidance reactions, group II [4, 13]: 72% | % of avoidance reactions, group III [4, 13]: 73% | % of avoidance reactions, group IV [4, 13]: 78% | % of avoidance reactions, group V [4, 13]: 77% | % of avoidance reactions, group VI [4, 13]: 80%
